How the values were obtained:
Assay in all cases: relative viability (nuclei count vs DMSO), 5 days (fraction); higher = more cells survive
[1] = compound: O=C(O)c1ccc2c(c1)nc(Nc1cccc(Cl)c1)c1ccncc12 [Silmitasertib] + CC(=O)Nc1cccc(-n2c(=O)n(C3CC3)c(=O)c3c(Nc4ccc(I)cc4F)n(C)c(=O)c(C)c32)c1 [Trametinib] (partner 0.02 µM)
Procedure, shortened: (§1)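 Lung cancer cell lines in 1536-well plates got either a single drug or a fixed anchor-drug dose together with five library-drug doses (not always all listed) in √10 steps, by pin tool, on the day after seeding. Nuclei were counted after 5 days, and relative viability is the treated-to-vehicle ratio of nuclei counts. Values are medians of duplicate plates.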

[2] = compound: O=C(O)c1ccc2c(c1)nc(Nc1cccc(Cl)c1)c1ccncc12 [Silmitasertib] + CC1(C)CCC(c2ccc(Cl)cc2)=C(CN2CCN(c3ccc(C(=O)NS(=O)(=O)c4ccc(N[C@H](CCN5CCOCC5)CSc5ccccc5)c(S(=O)(=O)C(F)(F)F)c4)cc3)CC2)C1 [Navitoclax] (partner 0.5 µM)
Procedure, shortened: as §1

Silmitasertib + OSI-027 = compound: O=C(O)c1ccc2c(c1)nc(Nc1cccc(Cl)c1)c1ccncc12 [Silmitasertib] + COc1cccc2cc(-c3nc([C@H]4CC[C@H](C(=O)O)CC4)n4ncnc(N)c34)[nH]c12 [OSI-027] (partner 0.5 µM)
Procedure, shortened: as §1

[3] = compound: O=C(O)c1ccc2c(c1)nc(Nc1cccc(Cl)c1)c1ccncc12 [Silmitasertib] + Cc1cc(Nc2cc(N3CCN(C)CC3)nc(Sc3ccc(NC(=O)C4CC4)cc3)n2)n[nH]1 [Tozasertib] (partner 0.1 µM)
Procedure, shortened: as §1

Silmitasertib + Olaparib = compound: O=C(O)c1ccc2c(c1)nc(Nc1cccc(Cl)c1)c1ccncc12 [Silmitasertib] + O=C(c1cc(Cc2n[nH]c(=O)c3ccccc23)ccc1F)N1CCN(C(=O)C2CC2)CC1 [Olaparib] (partner 8 µM)
Procedure, shortened: as §1

Cell Line	relative viability ([1]; first compound 0.04 µM)	relative viability ([1]; first compound 0.4 µM)	relative viability ([1]; first compound 1.265 µM)	relative viability ([1]; first compound 4 µM)	relative viability ([2]; first compound 0.04 µM)	relative viability ([2]; first compound 0.4 µM)	relative viability ([2]; first compound 1.265 µM)	relative viability ([2]; first compound 4 µM)	relative viability (Silmitasertib + OSI-027; first compound 0.04 µM)	relative viability (Silmitasertib + OSI-027; first compound 0.4 µM)	relative viability (Silmitasertib + OSI-027; first compound 1.265 µM)	relative viability (Silmitasertib + OSI-027; first compound 4 µM)	relative viability ([3]; first compound 0.04 µM)	relative viability ([3]; first compound 0.4 µM)	relative viability ([3]; first compound 1.265 µM)	relative viability ([3]; first compound 4 µM)	relative viability (Silmitasertib + Olaparib; first compound 0.04 µM)	relative viability (Silmitasertib + Olaparib; first compound 0.4 µM)	relative viability (Silmitasertib + Olaparib; first compound 1.265 µM)	relative viability (Silmitasertib + Olaparib; first compound 4 µM)
NCI-H1793	0.503	0.425	0.371	0.488	0.46	0.315	0.395	0.311	0.329	0.192	0.27	0.217	0.392	0.297	0.2	0.331	0.924	0.715	0.769	0.625
NCI-H1915	0.334		0.304	0.254	0.839		0.888	0.64	0.624		0.676	0.351	0.487		0.38	0.283	0.262		0.263	0.201
NCI-H1944	0.419	0.403	0.481	0.429	0.976	0.732	1.06	1.27	0.409	0.382	0.424	0.295	0.259	0.266	0.237	0.308	0.404	0.33	0.495	0.587
NCI-H1975	0.613		0.297	0.315	1.04	0.699	1.06	0.716	0.67		0.645	0.66	0.942		0.514	0.308	0.818		0.658	0.832
NCI-H1993	0.584	0.609	0.578	0.586	1.07	0.933	0.631	0.749	0.544	0.56	0.614	0.658	0.622	0.523	0.522	0.53	1.24	0.804	0.96	0.831
NCI-H2009	0.342	0.271	0.254	0.239	1.15	1.09	1.19	0.788	0.784	0.506	0.424	0.262	0.817	0.839	0.719	0.474	0.747	0.638	0.756	0.595
NCI-H2023	0.728	0.569	0.373	0.535	0.999	1.01	0.96	0.73	0.503	0.345	0.343	0.251	0.46	0.321	0.24	0.252	0.532	0.363	0.46	0.468
NCI-H2085	0.641	0.454	0.423	0.386	1.15	0.942	0.933	0.874	0.914		0.704	0.466	0.82	0.737	0.602	0.533	0.805	0.529	0.731	0.684
NCI-H2087	0.26	0.186	0.135	0.134	1.11	0.855	0.689	0.319	0.507		0.513	0.18	0.264		0.152	0.132	0.614	0.217	0.465	0.38
NCI-H2126	0.578	0.521	0.467	0.501	0.897	0.847	0.81	0.745	0.725		0.596	0.602	0.845	0.759	0.793	0.709	0.914	0.73	0.821	0.818
NCI-H2170	0.918	0.661	0.833	0.821	0.614	0.339	0.446	0.433	0.798	0.535	0.619	0.54	0.673	0.478	0.713	0.65	0.56	0.299	0.529	0.574
NCI-H2228	0.554	0.375	0.456	0.464	0.981	0.579	0.586	1.16	0.541		0.583	0.494	0.287		0.247	0.23	0.713	0.208	0.474	0.668
NCI-H2347	0.264	0.263	0.277	0.266	0.891	0.692	0.745	0.665	0.414		0.398	0.336	0.663		0.56	0.419	0.602	0.52	0.56	0.507
NCI-H2405	0.681	0.605	0.619	0.775	1.26	0.68	0.596	0.706	0.646	0.518	0.498	0.567	0.772	0.526	0.652	0.665	0.896	0.717	0.851	0.756
NCI-H3122	0.204	0.174	0.212	0.264	1.01	0.996	1.01	1.08	0.993	0.888	0.972	0.826	0.427	0.41	0.334	0.305	0.675	0.371	0.616	0.644
PC-3 [JPC-3]	0.716	0.661	0.795	0.632	0.746	0.688	0.773	0.775	0.841	0.573	0.777	0.573	0.971	0.69	0.86	0.835	1.22	0.737	1.12	1.13
PC-14	1.07		0.802	0.633	1.12	1.09	1.07	1.11	1.03	0.537	0.706	0.46	0.668		0.595	0.532	0.346	0.163	0.34	0.272
